By AC50 is commonly meant the midpoint of the concentration-response curve, whichever way the signal moves.

The target in the test is T1, PKR in ex vivo red blood cells from healthy individuals (Homo sapiens, UniProt P30613).
T1 construct: endogenous in cells; host or cells: human red blood cells isolated from fresh peripheral blood of healthy individuals
The test is described as follows: ex vivo pyruvate kinase (PKR) activity experiment, red blood cells of healthy individuals. It is filed as cell-based. Conditions: 3 hours co-cultivation. The procedure: To test the effects of the compound of the present disclosure on PKR activation in ex vivo red blood cells from healthy individuals and patients with thalassemia.
• i. 5 g of glucose, 85 mg of adenine, and 2.625 g of mannitol were weighed and added into a 50 mL centrifuge tube. 40 mL of PBS was added to dissolve (sonicate for 30 minutes until completely dissolved). The solution was filtered through a 0.22 µm filter, then added to 460 mL of sterile PBS and mixed thoroughly.
• i. Fresh human peripheral blood was collected. K2EDTA was used as the anticoagulant. 1 part anticoagulant with 9 parts blood was mixed, then centrifuged at 500 g for 10 minutes at room temperature to remove the plasma. • ii. Packed red blood cells: 1.5 volumes of PBS were added, then centrifuged at 2000 ×g for 5 minutes at room temperature. After centrifugation, the supernatant was removed. This step was repeated twice. • iii. Diluted red blood cells: 1.5 volumes of PBS were added, then resuspended and mixed thoroughly. • iv. The diluted red blood cells were slowly added to 0.5 volume of 70% isotonic solution (e.g., 7.5 mL of diluted red blood cells + 3 mL of 70% isotonic solution Percoll) and centrifuged at 4000 ×g for 20 minutes at 4°C. • v. The supernatant was removed. The red blood cells at the bottom were washed once with 4-5 mL of PBS to elute the Percoll gel, and then centrifuged at 2000 ×g for 5 minutes at room temperature. • vi. The supernatant was removed. The red blood cells were counted and then diluted in AGAM medium containing 10% FBS to a density of 2 × 10^8 cells/mL for storage at 4°C.
i. The red blood cells were seeded into a 96-well plate at a uniform density of 1 × 10^7 cells/mL, with 100 µL per well. The test compounds (dissolved in DMSO) were diluted and added to the cell culture medium, resulting in final compound concentrations of 3000, 1000, 300, 100, 10, 3, and 1 nM (with 1% DMSO). The cells and compounds were co-cultivated for 3 hours in a 37°C incubator with 5% CO2. Subsequently, the plate was centrifuged at 2000 g for 20 minutes, and the supernatant was discarded. 100 µL of red blood cell lysis buffer was added to the cell pellet, vortexed for 20 minutes, and centrifuged at 4000 g for 5 minutes. The supernatant was collected for analysis. ii. The reaction system was prepared according to the kit instructions (shown as the table below), 10 µL of the reaction system was added to each well of a 384-well plate, and 10 µL of red blood cell lysis buffer was took and mixed well (20 µL reaction system).
iii. A black, transparent-bottomed 384-well plate was placed in a microplate reader to measure fluorescence at 540/590 nm. The fluorescence was read every 2 minutes for 1 hour.
i. The Slope value was calculated over the assay time. Compound activation percentage was calculated using the 1% DMSO well as the control well. Activation percentage = (Slope of compound well / Slope of control well) × 100% ii. Dose-response curve was fit using the logarithmic compound concentration on the X-axis and the percent activation percentage on the Y-axis, the log(agonist) vs. response - variable slope function in GraphPad Prism 5 was used to determine the AC50 value for each compound on PKR activity. Y = min + (max−min)/(1+10^(∧)((LogAC50−X)×Hillslope)). [formula] The PKR agonist effects of the compound of the present disclosure on ex vivo red blood cells from healthy individuals and thalassemia patients were determined using the above assay. The AC50 values measured on ex vivo red blood cells from healthy individuals are as follows (A represents 0-100 nM, B represents 101-300 nM, and C represents 300-1000 nM): […]

T1 sequence (P30613 whole entry): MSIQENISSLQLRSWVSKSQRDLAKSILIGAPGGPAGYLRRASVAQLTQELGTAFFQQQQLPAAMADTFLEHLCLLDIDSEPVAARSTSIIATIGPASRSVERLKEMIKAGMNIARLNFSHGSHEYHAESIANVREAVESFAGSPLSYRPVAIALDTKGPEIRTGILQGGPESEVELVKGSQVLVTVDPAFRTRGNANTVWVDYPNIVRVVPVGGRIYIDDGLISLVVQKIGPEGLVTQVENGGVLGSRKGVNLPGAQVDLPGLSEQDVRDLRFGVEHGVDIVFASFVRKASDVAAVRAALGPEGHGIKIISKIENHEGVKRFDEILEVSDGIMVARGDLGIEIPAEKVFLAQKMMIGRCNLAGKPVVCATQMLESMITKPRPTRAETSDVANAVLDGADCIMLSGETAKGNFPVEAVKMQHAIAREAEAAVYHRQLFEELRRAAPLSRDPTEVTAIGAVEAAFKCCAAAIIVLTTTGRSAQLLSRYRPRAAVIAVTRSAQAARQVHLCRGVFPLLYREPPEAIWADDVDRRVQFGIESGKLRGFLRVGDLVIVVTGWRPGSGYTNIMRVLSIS

`O=C([C@H](CO)c1ccccc1)N1CC(=C2CN(S(=O)(=O)c3cnc4c(c3)OCCO4)C2)C1` [Compound 1, (S)-1-(1'-((2,3-dihydro-[1,4]dioxino[2,3-b]pyridin-7-yl)sulfonyl)-1',4'-dihydro-2H,2'H-[3,3'-diazetidinylidene]-1(4H)-yl)-3-hydroxy-2-phenylpropan-1-one] gave a concentration at half-maximal activity (AC50) of 101 to 300 nM. To `O=C([C@H](CO)c1ccccc1)N1CC(=C2CN(S(=O)(=O)c3ccc4c(c3)OCCO4)C2)C1` [Compound 2, (S) -1-(1'-((2,3-dihydrobenzo[b][1,4]dioxin-6-yl)sulfonyl)-1',4'-dihydro-2H,2'H-[3,3'-diazetidinylidene]-1(4H)-yl)-3-hydroxy-2-phenylpropan-1-one] belongs 300 to 1000 nM; to `O=C([C@H](CO)c1ccccc1)N1CC(=C2CN(S(=O)(=O)c3ccc4ncsc4c3)C2)C1` [Compound 3, (S)-1-(1'-(benzo[d]thiazol-6-ylsulfonyl)-1',4'-dihydro-2H,2'H-[3,3'-diazetidinylidene]-1(4H)-yl)-3-hy droxy-2-phenylpropan-1-one], 101 to 300 nM. For `O=C([C@H](CO)c1ccccc1)N1CC(=C2CN(S(=O)(=O)c3ccccn3)C2)C1` [Compound 4, (S)-3-hydroxy-2-phenyl-1-(1'-(pyridin-2-ylsulfonyl)-1',4'-dihydro-2H,2'H-[3.3'-diazetidinylidene]-1(4H)-yl)propan-1-one] the value was below 100 nM. To `COc1ccc(S(=O)(=O)N2CC(=C3CN(C(=O)[C@H](CO)c4ccccc4)C3)C2)cc1` [Compound 5, (S)-3-hydroxy-1-(1'-((4-methoxyphenyl)sulfonyl)-1',4'-dihydro-2H,2'H-[3,3'-diazetidinylidene]-1(4H )-yl)-2-phenylpropan-1-one] belongs 101 to 300 nM; to `O=C([C@H](CO)c1ccccc1)N1CC(=C2CN(S(=O)(=O)c3ccc(OC(F)F)cc3)C2)C1` [Compound 7, (S)-1-(1'-((4-(difluoromethoxy)phenyl)sulfonyl)-1',4'-dihydro-2H,2'H-[3,3'-diazetidinylidene]-1(4H)-yl)-3-hydroxy-2-phenylpropan-1-one], below 100 nM; to `O=C([C@H](CO)c1ccccc1)N1CC(=C2CN(S(=O)(=O)c3ccc(OC(F)(F)F)cc3)C2)C1` [Compound 9, (S)-3-hydroxy-2-phenyl-1-(1'-((4-(trifluoromethoxy)phenyl)sulfonyl)-1',4'-dihydro-2H,2'H-[3,3'-diazetidinylidene]-1(4H)-yl)propan-1-one], below 100 nM.

Take `O=C([C@H](CO)c1ccccc1)N1CC(=C2CN(S(=O)(=O)c3ccc(F)cc3)C2)C1` [Compound 10]: the AC50 was below 100 nM.

Take `O=C([C@H](CO)c1ccccc1)N1CC(=C2CN(S(=O)(=O)c3ccc(OC(F)F)c(F)c3)C2)C1` [Compound 11]: the AC50 was below 100 nM. For `O=C([C@H](CO)c1ccccc1)N1CC(=C2CN(S(=O)(=O)c3ccc4c(c3)NCCO4)C2)C1` [Compound 12, (S)-1-(1'-((3,4-dihydro-2H-benzo[b][1,4]oxazin-6-yl)sulfonyl)-1',4'-dihydro-2H,2'H-[3,3'-diazetidinylidene]-1(4H)-yl)-3-hydroxy-2-phenylpropan-1-one] the value was 300 to 1000 nM; for `O=C(C(CO)c1ccc(F)cc1)N1CC(=C2CN(S(=O)(=O)c3ccc(OC(F)F)cc3)C2)C1` (stereo not shown) [Compound 16, 1-(1'-((4-(difluoromethoxy)phenyl)sulfonyl)-1',4'-dihydro-2H,2'H-[3,3'-diazetidinylidene]-1(4H)-yl)-2-(4-fluorophenyl)-3-hydroxypropan-1-one], below 100 nM. `O=C([C@H](CO)c1ccccc1)N1CC(=C2CN(S(=O)(=O)c3cc(F)c4c(c3)OCCO4)C2)C1` [Compound 20, (S)-1-(1'-((8-fluoro-2,3-dihydrobenzo[b][1,4]dioxin-6-yl)sulfonyl)-1',4'-dihydro-2H,2'H-[3,3'-diazetidinylidene]-1(4H)-yl)-3-hydroxy-2-phenylpropan-1-one] gave an AC50 of 300 to 1000 nM.

The compound `NC(C(=O)N1CC(=C2CN(S(=O)(=O)c3ccc(OC(F)F)cc3)C2)C1)c1ccc(F)cc1` (stereo not shown) [Compound 22, 2-amino-1-(1'-((4-(difluoromethoxy)phenyl)sulfonyl)-1',4'-dihydro-2H,2'H-[3,3'-diazetidinylidene]-1 (4H)-yl)-2-(4-fluorophenyl)ethan-1-one] displayed an AC50 below 100 nM. To `O=C([C@H](CO)c1ccc(F)cc1)N1CC(=C2CN(S(=O)(=O)c3ccc4ncsc4c3)C2)C1` [Compound 25, (S)-1-(1'-(benzo[d]thiazol-6-ylsulfonyl)-1',4'-dihydro-2H,2'H-[3,3'-diazetidinylidene]-1(4H)-yl)-2-(4-fluorophenyl)-3-hydroxypropan-1-one] belongs 300 to 1000 nM; to `O=C(C(CO)c1ccc(F)cc1)N1CC(=C2CN(S(=O)(=O)c3ccc4c(c3)OC(F)(F)O4)C2)C1` (stereo not shown) [Compound 36, 1-(1'-((2,2-difluorobenzo[d][1,3]dioxolan-5-yl)sulfonyl)-1',4'-dihydro-2H,2'H-[3,3'-diazetidinylidene]-1(4H)-yl)-2-(4-fluorophenyl)-3-hydroxypropan-1-one], below 100 nM; to `O=C(N1CC(=C2CN(S(=O)(=O)c3ccc(OC(F)F)cc3)C2)C1)C1(c2ccccc2)CCOC1` (stereo not shown) [Compound 37, (1'-((4-(difluoromethoxy)phenyl)sulfonyl)-1',4'-dihydro-2H,2'H-[3,3'-diazetidinylidene]-1(4H)-yl)(3-phenyltetrahydrofuran-3-yl)methanone], 300 to 1000 nM.

`O=C1COc2ccc(S(=O)(=O)N3CC(=C4CN(C(=O)[C@H](CO)c5ccccc5)C4)C3)cc2N1` [Compound 40, (S)-6-((1'-(3-hydroxy-2-phenylpropionyl)-1',4'-dihydro-2H,2'H-[3,3'-diazetidinylidene]-1(4H)-yl)sulfonyl)-2H-benzo[b][1,4]oxazine-3(4H)-one] displayed an AC50 of 300 to 1000 nM.

For the compound `CN1C(=O)COc2ccc(S(=O)(=O)N3CC(=C4CN(C(=O)[C@H](CO)c5ccccc5)C4)C3)cc21` [Compound 41, (S)-6-((1'-(3-hydroxy-2-phenylpropionyl)-1',4'-dihydro-2H,2'H-[3,3'-diazetidinylidene]-1(4H)-yl)sulfonyl)-4-methyl-2H-benzo[b][1,4]oxazine-3(4H)-one], the AC50 is below 100 nM.

For the compound `CN1CCN(c2cccc(C(O)C(=O)N3CC(=C4CN(S(=O)(=O)c5ccc6ncsc6c5)C4)C3)c2)CC1` (stereo not shown) [Compound 43, 1-(1'-(benzo[d]thiazol-6-ylsulfonyl)-1',4'-dihydro-2H,2'H-[3,3'-diazetidinylidene]-1(4H)-yl)-2-hydroxy-2-(3-(4-methylpiperazin-1-yl)phenyl)ethan-1-one], the AC50 fell in the range of 101 to 300 nM. Take `O=C(C(CO)c1cccnc1)N1CC(=C2CN(S(=O)(=O)c3ccc4ncsc4c3)C2)C1` (stereo not shown) [Compound 48, 1-(1'-(benzo[d]thiazol-6-ylsulfonyl)-1',4'-dihydro-2H,2'H-[3,3'-diazetidinylidene]-1(4H)-yl)-3-hydroxy-2-(pyridin-3-yl)propan-1-one]: the AC50 was in the range of 300 to 1000 nM. For `O=C(C(CO)c1ccc(F)c(Cl)c1)N1CC(=C2CN(S(=O)(=O)c3ccccn3)C2)C1` (stereo not shown) [Compound 59, 2-(3-chloro-4-fluorophenyl)-3-hydroxy-1-(1'-(pyridin-2-ylsulfonyl)-1',4'-dihydro-2H,2'H-[3,3'-diazetidinylidene]-1(4H)-yl)propan-1-one] the value was below 100 nM; for `O=C(C(CO)c1ccc(F)c(F)c1)N1CC(=C2CN(S(=O)(=O)c3ccccn3)C2)C1` (stereo not shown) [Compound 61, 2-(3,4-difluorophenyl)-3-hydroxy-1-(1'-(pyridin-2-ylsulfonyl)-1',4'-dihydro-2H,2'H-[3,3'-diazetidinylidene]-1(4H)-yl)propan-1-one], 101 to 300 nM.
